Measurements as given in ChEMBL document CHEMBL1136786, “2002 Medicinal Chemistry Division Award address: monoamine transporters and opioid receptors. Targets for addiction therapy” (J Med Chem, 2003).
pIC50, pKi: −log10 of the molar value. Active and inactive are the calls of the source. No cut-off for these calls is given here.

Columns and labels:
[1] = biological target: Mu-type opioid receptor (Cavia porcellus) (UniProt P97266); experiment: Inhibition of [35S]GTP-gamma-S, binding in guines pig caudate stimulated by DAMGO for Opioid receptor mu 1; assay type: functional
Mu-type opioid receptor (Cavia porcellus), sequence (P97266 whole entry): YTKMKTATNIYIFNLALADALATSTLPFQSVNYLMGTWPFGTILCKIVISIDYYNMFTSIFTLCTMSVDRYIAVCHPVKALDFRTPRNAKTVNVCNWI

[2] = biological target: Kappa-type opioid receptor (Cavia porcellus) (UniProt P41144); experiment: Inhibition of [35S]GTP-gamma-S, binding in guines pig caudate stimulated by U69, 593 of Opioid receptor kappa 1; assay type: functional
Kappa-type opioid receptor (Cavia porcellus), sequence (P41144 whole entry): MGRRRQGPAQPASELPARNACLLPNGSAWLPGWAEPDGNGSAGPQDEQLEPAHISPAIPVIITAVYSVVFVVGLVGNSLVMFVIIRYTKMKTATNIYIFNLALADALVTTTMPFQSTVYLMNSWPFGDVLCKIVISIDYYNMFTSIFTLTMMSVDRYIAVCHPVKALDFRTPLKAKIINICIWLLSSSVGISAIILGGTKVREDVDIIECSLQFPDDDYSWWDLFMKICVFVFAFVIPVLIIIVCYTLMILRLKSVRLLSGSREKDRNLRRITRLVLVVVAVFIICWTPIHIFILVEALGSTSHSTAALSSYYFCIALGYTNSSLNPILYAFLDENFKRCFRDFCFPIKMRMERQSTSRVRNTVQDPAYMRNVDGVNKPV

[3] = biological target: Sodium-dependent serotonin transporter (Rattus norvegicus, UniProt P31652); experiment: Inhibition of [3H]paroxetine binding at serotonin transporter was determined
Sodium-dependent serotonin transporter, sequence (P31652 whole entry): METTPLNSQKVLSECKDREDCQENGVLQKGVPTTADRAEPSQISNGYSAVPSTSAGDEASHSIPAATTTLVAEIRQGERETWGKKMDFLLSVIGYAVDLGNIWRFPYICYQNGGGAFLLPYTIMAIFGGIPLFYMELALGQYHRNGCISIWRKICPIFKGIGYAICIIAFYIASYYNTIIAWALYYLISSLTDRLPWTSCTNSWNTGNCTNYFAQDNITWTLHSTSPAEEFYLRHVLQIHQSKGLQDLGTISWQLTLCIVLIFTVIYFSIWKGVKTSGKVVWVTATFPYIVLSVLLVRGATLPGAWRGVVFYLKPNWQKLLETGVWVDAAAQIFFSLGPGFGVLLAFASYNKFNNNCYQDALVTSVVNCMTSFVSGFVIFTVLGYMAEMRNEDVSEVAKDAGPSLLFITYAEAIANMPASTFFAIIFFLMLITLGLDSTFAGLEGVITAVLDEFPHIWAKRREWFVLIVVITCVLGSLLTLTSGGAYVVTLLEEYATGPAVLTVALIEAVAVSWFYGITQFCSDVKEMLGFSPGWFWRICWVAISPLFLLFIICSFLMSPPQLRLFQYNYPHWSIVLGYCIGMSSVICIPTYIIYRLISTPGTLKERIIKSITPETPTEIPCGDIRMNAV

[4] = biological target: Sodium-dependent dopamine transporter (Rattus norvegicus, UniProt P23977); experiment: Inhibition of [3H]WIN-35428 binding at dopamine transporter was determined
Sodium-dependent dopamine transporter, sequence (P23977 whole entry): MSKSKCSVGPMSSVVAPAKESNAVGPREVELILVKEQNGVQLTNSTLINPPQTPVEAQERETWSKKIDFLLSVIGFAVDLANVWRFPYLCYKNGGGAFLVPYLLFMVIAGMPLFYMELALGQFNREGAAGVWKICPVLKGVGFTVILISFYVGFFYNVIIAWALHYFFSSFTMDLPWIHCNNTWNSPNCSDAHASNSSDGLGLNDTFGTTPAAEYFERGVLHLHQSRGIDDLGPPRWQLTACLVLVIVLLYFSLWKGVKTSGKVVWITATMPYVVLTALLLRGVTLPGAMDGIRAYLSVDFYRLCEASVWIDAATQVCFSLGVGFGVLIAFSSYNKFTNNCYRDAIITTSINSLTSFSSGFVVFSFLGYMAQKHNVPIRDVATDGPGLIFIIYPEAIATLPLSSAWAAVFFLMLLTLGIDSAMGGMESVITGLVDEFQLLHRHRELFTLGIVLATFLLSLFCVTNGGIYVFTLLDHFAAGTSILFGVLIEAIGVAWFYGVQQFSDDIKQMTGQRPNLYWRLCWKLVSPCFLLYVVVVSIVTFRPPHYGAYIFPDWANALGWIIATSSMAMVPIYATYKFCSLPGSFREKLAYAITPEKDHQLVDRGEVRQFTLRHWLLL

[5] = biological target: T1, Norepinephrine transporter (Rattus norvegicus, UniProt Q9WTR4); experiment: Affinity for norepinephrine transporter determined by [3H]nisoxetine displacement.
T1 sequence (Q9WTR4 whole entry): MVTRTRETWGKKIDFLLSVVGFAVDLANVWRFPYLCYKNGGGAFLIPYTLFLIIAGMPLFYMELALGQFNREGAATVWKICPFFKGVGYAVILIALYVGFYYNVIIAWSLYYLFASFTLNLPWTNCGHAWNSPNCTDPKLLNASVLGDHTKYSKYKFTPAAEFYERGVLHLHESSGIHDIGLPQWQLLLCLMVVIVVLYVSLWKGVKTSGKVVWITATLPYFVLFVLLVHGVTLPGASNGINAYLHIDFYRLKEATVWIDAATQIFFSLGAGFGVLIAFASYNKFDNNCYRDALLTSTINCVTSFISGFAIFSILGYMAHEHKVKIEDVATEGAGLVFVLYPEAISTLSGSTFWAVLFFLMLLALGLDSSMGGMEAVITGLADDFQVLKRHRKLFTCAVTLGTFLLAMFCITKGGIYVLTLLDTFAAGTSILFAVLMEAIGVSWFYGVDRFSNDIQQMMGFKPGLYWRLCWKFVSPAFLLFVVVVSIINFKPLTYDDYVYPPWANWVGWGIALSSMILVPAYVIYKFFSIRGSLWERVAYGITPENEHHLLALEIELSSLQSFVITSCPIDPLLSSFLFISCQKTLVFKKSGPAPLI

[6] = biological target: T1, Norepinephrine transporter; experiment: Inhibition of [3H]nisoxetine binding at norepinephrine transporter
[7] = biological target: Delta-type opioid receptor (Homo sapiens) (UniProt P41143); conditions: Cavia porcellus
Delta-type opioid receptor (Homo sapiens), sequence (P41143 whole entry): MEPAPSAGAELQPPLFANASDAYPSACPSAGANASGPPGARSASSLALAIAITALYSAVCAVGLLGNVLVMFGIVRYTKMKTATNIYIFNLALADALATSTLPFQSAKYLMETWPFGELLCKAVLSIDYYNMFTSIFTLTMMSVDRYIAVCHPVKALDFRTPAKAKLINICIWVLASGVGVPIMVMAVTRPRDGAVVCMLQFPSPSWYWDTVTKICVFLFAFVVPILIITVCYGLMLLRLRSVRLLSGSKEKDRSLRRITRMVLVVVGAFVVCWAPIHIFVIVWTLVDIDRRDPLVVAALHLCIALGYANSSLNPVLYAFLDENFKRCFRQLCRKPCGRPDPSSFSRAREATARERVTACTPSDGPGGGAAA
Description: Inhibition of [35S]GTP-gamma-S, binding in guines pig caudate stimulated by SNC-80 to Opioid receptor delta 1

Mu-type opioid receptor = Mu-type opioid receptor (Cavia porcellus, UniProt P97266); experiment: Inhibition of binding of [3H]DAMGO to Opioid receptor mu 1 in guinea pig membranes; assay type: cell membranes
Mu-type opioid receptor, sequence (P97266 whole entry): as the sequence (P97266 whole entry) above

[8] = biological target: Kappa-type opioid receptor (Cavia porcellus) (UniProt P41144)
Description: Inhibition of [35S]GTP-gamma-S, binding in cloned Opioid receptor kappa 1 stimulated by U50,488

[9] = biological target: Mu-type opioid receptor (Cavia porcellus) (UniProt P97266)
Description: Inhibition of [35S]GTP-gamma-S, binding in cloned Opioid receptor mu 1 stimulated by DAMGO

[10] = biological target: Delta-type opioid receptor (Homo sapiens) (UniProt P41143); conditions: Cavia porcellus; remark: listed apart in the source
Description: Inhibition of [35S]GTP-gamma-S, binding in cloned Opioid receptor delta 1 stimulated by SNC-80

[11] = biological target: Kappa-type opioid receptor (Cavia porcellus) (UniProt P41144); remark: listed apart in the source
Description: Inhibition of [35S]GTP-gamma-S, binding in guines pig caudate stimulated by U50, 488 of Opioid receptor kappa 1

[12] = biological target: Kappa-type opioid receptor (Cavia porcellus) (UniProt P41144); remark: listed apart in the source
Description: Inhibition of [35S]GTP-gamma-S, binding in cloned Opioid receptor kappa 1 stimulated by U69, 593

[13] = biological target: D(2) dopamine receptor (Rattus norvegicus) (UniProt P61169); conditions: Nucleus accumbens
D(2) dopamine receptor (Rattus norvegicus), sequence (P61169 whole entry): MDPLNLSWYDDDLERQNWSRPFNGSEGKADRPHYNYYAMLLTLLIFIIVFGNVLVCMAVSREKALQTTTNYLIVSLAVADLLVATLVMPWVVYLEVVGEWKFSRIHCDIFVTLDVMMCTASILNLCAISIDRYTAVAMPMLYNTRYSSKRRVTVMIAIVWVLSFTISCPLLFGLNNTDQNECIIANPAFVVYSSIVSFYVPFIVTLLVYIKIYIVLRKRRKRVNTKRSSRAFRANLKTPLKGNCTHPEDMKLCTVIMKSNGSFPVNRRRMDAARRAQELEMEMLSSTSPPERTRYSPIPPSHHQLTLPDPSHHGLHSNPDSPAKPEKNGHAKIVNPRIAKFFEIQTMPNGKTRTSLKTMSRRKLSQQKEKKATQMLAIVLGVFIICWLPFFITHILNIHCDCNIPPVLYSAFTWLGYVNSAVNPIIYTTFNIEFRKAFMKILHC

[14] = biological target: D(2) dopamine receptor (Rattus norvegicus) (UniProt P61169)
[15] = biological target: D(1A) dopamine receptor (Rattus norvegicus) (UniProt P18901); conditions: Striatum
D(1A) dopamine receptor (Rattus norvegicus), sequence (P18901 whole entry): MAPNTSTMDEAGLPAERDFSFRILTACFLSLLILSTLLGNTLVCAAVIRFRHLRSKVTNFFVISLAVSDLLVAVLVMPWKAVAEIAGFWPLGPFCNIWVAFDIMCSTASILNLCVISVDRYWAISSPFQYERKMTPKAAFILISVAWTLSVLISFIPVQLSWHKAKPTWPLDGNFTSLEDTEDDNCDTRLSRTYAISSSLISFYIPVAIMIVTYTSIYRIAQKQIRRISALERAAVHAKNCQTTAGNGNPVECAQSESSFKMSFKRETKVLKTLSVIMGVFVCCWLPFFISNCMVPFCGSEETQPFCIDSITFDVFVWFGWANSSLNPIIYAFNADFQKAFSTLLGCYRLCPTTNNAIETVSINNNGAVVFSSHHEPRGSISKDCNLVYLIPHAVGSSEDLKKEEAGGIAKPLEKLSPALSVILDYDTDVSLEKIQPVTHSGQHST

[16] = biological target: D(1A) dopamine receptor (Rattus norvegicus) (UniProt P18901); conditions: Striatum; remark: listed apart in the source
Mus musculus [17] = organism: Mus musculus; experiment: Antagonistic activity of nicotine-induced analgesia in mice was determined; assay type: functional
Mus musculus [18] = organism: Mus musculus; experiment: Antagonistic activity of nicotine-induced hypothermia in mice was determined; assay type: functional

With `CC(C)[C@@H](CN1CC[C@@](C)(c2cccc(O)c2)[C@@H](C)C1)NC(=O)CCc1ccc(O)cc1` the Ke [1] was 7.25 nM and the Ke [2] was 4.7 nM.

`CCc1ccc([C@H]2C[C@H]3CCC(N3)C2C(=O)OC)cc1I` (some centres not stated) was tested, and the pIC50 [3] was 9.16, the pKi [3] was 10.20 and the pIC50 [4] was 6.48. For the same compound, the pKi [5] was 7.05 and the pIC50 [6] was 6.83.

Compound `C[C@H]1CN(CC[C@H](O)C2CCCCC2)CC[C@@]1(C)c1cccc(O)c1` has a Ke [1] of 0.021 nM, a Ke [2] of 0.33 nM and a Ke [7] of 0.312 nM. For the same compound, the pKi (Mu-type opioid receptor) was 9.49.

Compound `COC(=O)C1C2CC[C@H](C[C@H]1c1ccc(Br)cc1)N2C` (some centres not stated) has a pIC50 [3] of 7.97 and a pKi [3] of 9.02.

`CC(C)[C@@H](CN1CC[C@@](C)(c2cccc(O)c2)[C@@H](C)C1)NC(=O)[C@H]1Cc2ccc(O)cc2CN1` gave a Ke [8] of 6 pM, a Ke [9] of 3.42 nM and a Ke [10] of over 100 nM.

`Oc1ccc2c3c1O[C@H]1c4[nH]c5c(c4C[C@@]4(O)[C@@H](C2)N(CC2CC2)CC[C@]314)C[C@@]1(O)[C@H]2Cc3ccc(O)c4c3[C@@]1(CCN2CC1CC1)[C@H]5O4` gave a Ke [11] of 0.038 nM, a Ke [1] of 16.8 nM and a Ke [12] of 0.07 nM. The Ke [9] was 15.8 nM.

For `CN1C2CC[C@@H]1C[C@H](c1ccc(Cl)cc1)C2c1cc(-c2ccccc2)no1` (some centres not stated), the pKi [3] was 6.66 and the pKi [5] was 6.52.

With `CCc1cc(Cl)c(OC)c(C(=O)NC[C@@H]2CCCN2CC)c1O` the NC [13] was “inactive” and the NC [14] was “inactive”.

Work on `CN1[C@H]2CC[C@@H]1[C@@H](C(=O)N1CCCC1)[C@@H](c1ccc(I)cc1)C2` yielded a pKi [3] of 6.80 and a pKi [5] of 6.22.

In the case of `Oc1cc2c(cc1O)C(c1ccccc1)CNCC2` (configuration not stated), the NC [15] was “inactive” and the NC [16] was “inactive”.

For `COC(=O)C1C2CC[C@H](C[C@@H]1c1ccc(Cl)cc1)N2C` (some centres not stated), the pKi [3] was 8.39.

With `C[C@H]1CN(C/C=C/c2ccccc2)CC[C@@]1(C)c1cccc(O)c1` the Ke [1] was 0.039 nM, the Ke [2] was 1.04 nM and the pKi (Mu-type opioid receptor) was 9.13.

With `CC(NC(C)(C)C)C(=O)c1cccc(Cl)c1` (configuration not stated) [BUPROPION] the AD50 (Mus musculus [17]) was 9 mM/kg and the AD50 (Mus musculus [18]) was 16 mM/kg.

Work on `C=C(C)c1ccc([C@H]2C[C@H]3CCC(N3)C2C(=O)OC)cc1` (some centres not stated) yielded a pIC50 [3] of 9.22, a pKi [3] of 10.26 and a pIC50 [4] of 7.64. It also gave a pKi [5] of 7.06 and a pIC50 [6] of 6.84.

Compound `Cc1ccccc1/C=C/CN1CC[C@@](C)(c2cccc(O)c2)[C@@H](C)C1` has a Ke [1] of 0.013 nM, a Ke [2] of 0.17 nM and a pKi (Mu-type opioid receptor) of 9.07.

Compound `C[C@H]1CN(C/C=C/c2ccccc2Cl)CC[C@@]1(C)c1cccc(O)c1` has a Ke [1] of 0.026 nM, a Ke [2] of 0.567 nM and a pKi (Mu-type opioid receptor) of 8.95.

Work on `COC(=O)C1C2CC[C@H](C[C@@H]1c1ccc(C)c(F)c1)N2` (some centres not stated) yielded a pIC50 [3] of 7.01, a pKi [3] of 7.62 and a pIC50 [4] of 8.05. The pKi [5] was 9.37 and the pIC50 [6] was 9.07.

For `COC(=O)C1C2CC[C@H](C[C@@H]1c1ccc(I)cc1)N2C` (some centres not stated), the pKi [3] was 9.42 and the pKi [5] was 7.67.
